How the values were obtained:
Type in all cases: biochemical, Myceliophthora thermophila C1
M. thermophila C1 BGl1 = experiment: Cellobiase activity of Bgl1 with or without gluconolactone; settings: gluconolactone above 0.1 g/L; pH 4.5, 5.0 and 6.0
Experimental: (§1) Purified Bgl1, Eg5, Eg6, CBH1, CBH2, and CBH4 from M. thermophila C1 were used to determine the level of inhibition by gluconolactone. For Bgl1, cellobiase activity was assayed by the following procedure: 0.4 ml of 2.5 mM cellobiose solution (in 0.1 M Na-acetate with pH 4.5, 5.0 or 6.0) was incubated during 5 min at 50° C. (with or without gluconolactone), then 0.1 ml of the enzyme (bgl1 from C1) solution was added (the dilution of the enzyme chosen at such a concentration in order to achieve 10% of cellobiose hydrolysis in 15 min, which is 0.072 g/L of glucose released). After 5, 10 and 15 min of incubation at […], 0.1 ml of the reaction mixture was sampled and glucose concentration was determined immediately by the glucose oxidase-peroxidase assay (Megazymes). Gluconolactone (Sigma-Aldrich) was added in the reaction mixture at concentrations between 0-10 g/L (0, 0.04, 0.08, 0.1, 0.2, 0.3, 0.6, 0.8, 1, 2, 4, 5, 8 and 10 g/L).
(§2) For C1 cellulases Eg2, Eg5, Eg6, CBH1, CBH2, CBH4, the effect of 10 g/L gluconolactone on the saccharification of microcrystalline cellulose (“MCC”) at 50° C. was determined after 72 hrs.

CBH1 = experiment: Saccharification of microcrystalline cellulose by purified cellulase with gluconolactone; settings: 10 g/L gluconolactone; MCC, 50° C., 72 hrs
Experimental: as §1, §2

CBH4 = experiment: as above; settings: 10 g/L gluconolactone; MCC, 50° C., 72 hrs
Experimental: as §1, §2

CBH2 = experiment: as above; settings: 10 g/L gluconolactone; MCC, 50° C., 72 hrs
Experimental: as §1, §2

EG5 = experiment: as above; settings: 10 g/L gluconolactone; MCC, 50° C., 72 hrs
Experimental: as §1, §2

EG2 = experiment: as above; settings: 10 g/L gluconolactone; MCC, 50° C., 72 hrs
Experimental: as §1, §2

- inhibition of cellobiase activity (M. thermophila C1 BGl1): completely inhibited
- Remaining activity (CBH1): 14%
- Remaining activity (CBH4): 33%
- Remaining activity (CBH2): 13%
- Remaining activity (EG5): 65%
- Remaining activity (EG2): 28%
Structure (SMILES): O=C1O[C@H](CO)[C@@H](O)[C@H](O)[C@H]1O [gluconolactone]
